According to patent US20160083400A1, “TRICYCLIC GUANIDINE DERIVATIVE” (Sunovion Pharmaceuticals Inc., priority 2014, published 2016):
pIC50: −log10 of the molar value.

Assays:
Format in all cases: biochemical
[1] = molecular target: PDE1C (Homo sapiens, UniProt Q14123); test: In vitro HTRF PDE1 inhibition assay (PDE1C)
Excerpt: (§1) An exemplary procedure for the in vitro Homogenous Time Resolved Fluorescence (HTRF) assay, which can be used to determine the inhibitory action of compounds of the invention toward PDE1 or its isoforms, follows.
(§2) The HTRF PDE1 assay utilized the HTRF technology, which is based on the competition between unlabeled cyclic nucleotide and cyclic nucleotide labeled with XL665 for the binding to cyclic nucleotide-specific antibody labeled with cryptate. The HTRF signal is thus inversely proportional to the concentration of cyclic nucleotide being measured. Since phosphodiesterases break down cyclic nucleotides the HTRF signal was used to determine PDE activity.
(§3) The Cisbio cGMP HTRF assay kit (Cat no: 62GM2PEC) was utilized. Cyclic GMP was diluted to 200 nM in HTRF assay buffer (1 mM CaCl2, 10 mM MgCl2, 10 mM Tris-HCl, 0.1% BSA, pH7.4). 10 μl of compound or DMSO was diluted in 200 nM cyclic GMP solution and added to wells of a 96 well white plate to give 100 nM cyclic GMP in 1% DMSO final concentration. PDE (1A3, 1B or 1C) was diluted to 2× working concentration in HTRF assay buffer with 4 μg/ml Calmodulin, and 10 μl was added to initiate the reaction. The plate was then incubated for 45 minutes at 37° C. d2-Labelled cyclic GMP and anti-cGMP cryptate were diluted in 50 mM phosphate buffer, 0.8M KF, 1% Triton X100, 0.2% BSA, pH7.0. Following incubation 10 μl d2-cGMP, then 10 μl anti cGMP cryptate were added to each well and the plate was incubated for 45 minutes at rt. The plate was then read on Perkin Elmer Victor at 2 different FRET readings ex/emm 340 nm/665 nm and 340 nm/615 nm.
(§4) Compounds having an IC50 of <1 μM, are denoted as +++. Compounds having an IC50 of 1-10 μM, are denoted as ++. Compounds having an IC50 of 10-100 μM, are denoted as +.

[2] = molecular target: PDE1B (Homo sapiens, UniProt Q01064); test: In vitro HTRF PDE1 inhibition assay (PDE1B); details: 100 nM cyclic GMP, calmodulin, 45 minutes at 37° C.
PDE1B, sequence (Q01064 whole entry): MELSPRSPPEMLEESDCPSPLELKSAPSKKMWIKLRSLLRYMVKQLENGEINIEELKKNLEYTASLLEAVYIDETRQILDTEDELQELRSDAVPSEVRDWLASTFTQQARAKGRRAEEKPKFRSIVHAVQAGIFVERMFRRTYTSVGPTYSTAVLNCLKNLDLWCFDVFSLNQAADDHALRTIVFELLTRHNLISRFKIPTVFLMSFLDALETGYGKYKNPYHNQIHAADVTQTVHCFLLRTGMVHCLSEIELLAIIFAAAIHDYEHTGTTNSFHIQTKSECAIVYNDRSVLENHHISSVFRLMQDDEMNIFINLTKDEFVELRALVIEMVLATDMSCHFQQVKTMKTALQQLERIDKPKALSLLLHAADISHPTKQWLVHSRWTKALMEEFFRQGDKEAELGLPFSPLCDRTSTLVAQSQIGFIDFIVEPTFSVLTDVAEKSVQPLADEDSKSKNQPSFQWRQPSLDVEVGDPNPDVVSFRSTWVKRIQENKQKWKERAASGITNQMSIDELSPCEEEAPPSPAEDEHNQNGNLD

[3] = molecular target: PDE1A (PDE 1A3) (Homo sapiens, UniProt P54750); test: In vitro HTRF PDE1 inhibition assay (PDE1A); details: PDE1A (1A3); 100 nM cyclic GMP, calmodulin, 45 minutes at 37° C.
PDE1A (PDE 1A3), sequence (P54750 whole entry): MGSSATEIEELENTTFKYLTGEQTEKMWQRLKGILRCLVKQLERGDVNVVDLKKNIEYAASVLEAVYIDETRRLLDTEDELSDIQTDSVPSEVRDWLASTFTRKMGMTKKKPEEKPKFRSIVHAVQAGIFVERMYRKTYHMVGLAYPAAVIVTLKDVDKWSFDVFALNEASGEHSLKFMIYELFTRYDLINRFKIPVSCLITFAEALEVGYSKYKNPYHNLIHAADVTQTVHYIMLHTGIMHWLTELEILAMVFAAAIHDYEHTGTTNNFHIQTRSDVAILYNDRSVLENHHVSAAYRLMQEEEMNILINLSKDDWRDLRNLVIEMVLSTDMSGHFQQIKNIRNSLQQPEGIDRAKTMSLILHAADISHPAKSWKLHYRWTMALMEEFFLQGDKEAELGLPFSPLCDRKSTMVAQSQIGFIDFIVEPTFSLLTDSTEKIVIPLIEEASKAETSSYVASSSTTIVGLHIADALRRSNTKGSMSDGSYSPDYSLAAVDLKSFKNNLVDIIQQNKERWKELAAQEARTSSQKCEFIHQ
Excerpt: as §1, §2, §3, §4

PDE1C, sequence (Q14123 whole entry, canonical isoform): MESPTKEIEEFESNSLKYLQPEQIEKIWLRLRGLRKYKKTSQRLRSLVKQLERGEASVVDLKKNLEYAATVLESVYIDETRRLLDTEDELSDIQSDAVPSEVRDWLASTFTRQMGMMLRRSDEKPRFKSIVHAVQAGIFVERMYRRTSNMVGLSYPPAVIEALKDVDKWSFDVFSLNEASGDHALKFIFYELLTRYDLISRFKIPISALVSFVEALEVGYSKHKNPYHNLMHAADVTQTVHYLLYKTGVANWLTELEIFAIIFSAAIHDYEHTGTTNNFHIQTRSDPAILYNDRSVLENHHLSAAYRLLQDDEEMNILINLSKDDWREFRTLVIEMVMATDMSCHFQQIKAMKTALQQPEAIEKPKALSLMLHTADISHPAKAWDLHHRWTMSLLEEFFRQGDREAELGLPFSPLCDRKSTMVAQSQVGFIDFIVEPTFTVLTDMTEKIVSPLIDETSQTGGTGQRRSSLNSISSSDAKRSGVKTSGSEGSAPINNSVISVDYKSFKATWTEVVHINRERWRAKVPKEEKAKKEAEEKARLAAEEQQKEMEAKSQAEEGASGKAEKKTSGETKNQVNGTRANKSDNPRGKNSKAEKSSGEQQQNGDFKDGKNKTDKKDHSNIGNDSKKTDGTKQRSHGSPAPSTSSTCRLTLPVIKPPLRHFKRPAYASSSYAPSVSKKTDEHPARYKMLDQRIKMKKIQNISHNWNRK

Structure (SMILES)	pIC50 [1]	IC50 [2]	IC50 [3]
CC(C)n1ncc2c(=O)n3c(nc21)NC(c1ccc(C(F)(F)F)cc1)CC3 (stereo not drawn) [Example 29]	5.00 to 6.00	< 1 µM	< 1 µM
O=c1c2cnc(C3COC3)n2nc2n1CC[C@H](c1ccc(Cl)cc1)N2 [Example 165]	5.00 to 6.00	< 1 µM	< 1 µM
O=c1c2cnc(C3CCOCC3)n2nc2n1CCC(c1ccc(Cl)cc1)N2 (stereo not drawn) [Example 55]	5.00 to 6.00	< 1 µM	< 1 µM
O=c1c2cnc([C@@H]3CCOC3)n2nc2n1CC[C@H](c1ccc(Cl)cc1)N2 [Example 224]	5.00 to 6.00	< 1 µM	< 1 µM
O=c1c2cnc(C3CCC3)n2nc2n1CC[C@H](c1ccc(Cl)cc1)N2 [Example 65]	> 6.00	< 1 µM	< 1 µM
CC(C)c1ncc2c(=O)n3c(nn12)N[C@@H](c1ccc(Cl)cc1)CC3 [Example 18, (2R)-2-(4-Chlorophenyl)-9-isopropyl-1,2,3,4-tetrahydro-6H-imidazo[5,1-f]pyrimido[2,1-c][1,2,4]triazin-6-one]	5.00 to 6.00	< 1 µM	< 1 µM
O=c1c2cnc(C3CCOCC3)n2nc2n1C[C@H](c1ccc(Cl)cc1)N2 [Example 139]	5.00 to 6.00	< 1 µM	< 1 µM
CC(C)c1ncc2c(=O)n3c(nn12)NCCC3 [Example 52]	5.00 to 6.00	< 1 µM	1 to 10 µM
COc1ccc([C@H]2Cn3c(nn4c(C5CCOCC5)ncc4c3=O)N2)cc1 [Example 151, (2S)-2-(4-Methoxyphenyl)-8-(tetrahydro-2H-pyran-4-yl)-2,10-dihydro-3H,5H-diimidazo[2,1-c:5′,1′-f][1,2,4]triazin-5-one]	> 6.00	< 1 µM	< 1 µM
CC(C)n1ncc2c(=O)n3c(nc21)N[C@@H](c1ccc(Cl)cc1)C3 [Example 144]	> 6.00	< 1 µM	< 1 µM
O=c1c2cnc(C3CCOCC3)n2nc2n1CC[C@H](c1ccc(Cl)cc1)N2 [Example 69, (2R)-2-(4-Chlorophenyl)-9-(tetrahydro-2H-pyran-4-yl)-1,2,3,4-tetrahydro-6H-imidazo[5,1-f]pyrimido[2,1-c][1,2,4]triazin-6-one]	> 6.00	< 1 µM	< 1 µM
Cc1ccc([C@H]2CN3C(=O)c4cnc(C(C)C)n4NC3=N2)cc1 [Example 96, (2S)-8-Isopropyl-2-(4-methylphenyl)-2,10-dihydro-3H,5H-diimidazo[2,1-c:5′,1′-f][1,2,4]triazin-5-one]	> 6.00	< 1 µM	< 1 µM
O=c1c2cnn(C3CCCC3)c2nc2n1CCC(c1ccc(Cl)cc1)N2 (stereo not drawn) [Example 4]	5.00 to 6.00	< 1 µM	1 to 10 µM
COc1ccc(C2CCn3c(nn4c(C5CCOCC5)ncc4c3=O)N2)cc1 (stereo not drawn) [Example 57]	> 6.00	< 1 µM	< 1 µM
CC(C)c1ncc2c(=O)n3c(nn12)NC(c1ccc(Cl)cc1)CC3 (stereo not drawn) [Example 46]	5.00 to 6.00	< 1 µM	10 to 100 µM
O=c1c2cnc([C@H]3CCOC3)n2nc2n1CC[C@H](c1ccc(Cl)cc1)N2 [Example 225]	> 6.00	< 1 µM	< 1 µM
CC(C)n1ncc2c(=O)n3c(nc21)N[C@@H](c1ccc(Cl)cc1)CC3 [Example 27]	5.00 to 6.00	< 1 µM	< 1 µM
CC(C)c1ncnc2c(=O)n3c(nc12)NC(c1ccc(Cl)cc1)CC3 (stereo not drawn) [Example 176]	5.00 to 6.00	< 1 µM	< 1 µM
O=c1c2cnc(C3CCCC3)n2nc2n1CC[C@H](c1ccc(Cl)cc1)N2 [Example 61]	> 6.00	< 1 µM	< 1 µM

Further lines, results first:

pIC50 [1]	IC50 [2]	IC50 [3]	Structure (SMILES)
> 6.00	< 1 µM	< 1 µM	CO[C@@H](C)c1ncc2c(=O)n3c(nn12)N[C@@H](c1ccc(Cl)cc1)CC3 [Example 259]
5.00 to 6.00	< 1 µM	< 1 µM	CO[C@H](C)c1ncc2c(=O)n3c(nn12)N[C@@H](c1ccc(Cl)cc1)CC3 [Example 260]
5.00 to 6.00	< 1 µM	< 1 µM	CC(C)(O)c1ncc2c(=O)n3c(nn12)N[C@@H](c1ccc(Cl)cc1)CC3 [Example 242]
> 6.00	< 1 µM	< 1 µM	CC[C@@H](C)c1ncc2c(=O)n3c(nn12)N[C@@H](c1ccc(Cl)cc1)CC3 [Example 226]
> 6.00	< 1 µM	< 1 µM	CC[C@H](C)c1ncc2c(=O)n3c(nn12)N[C@@H](c1ccc(Cl)cc1)CC3 [Example 227]
5.00 to 6.00	< 1 µM	< 1 µM	O=c1c2cnc(C3(C(F)(F)F)CC3)n2nc2n1CC[C@H](c1ccc(Cl)cc1)N2 [Example 238]
5.00 to 6.00	< 1 µM	< 1 µM	O=c1c2ncnc(C3CCOCC3)c2nc2n1CCC(c1ccc(Cl)cc1)N2 (stereo not drawn) [Example 265, 7-(4-Chlorophenyl)-4-(tetrahydro-2H-pyran-4-yl)-5,7,8,9-tetrahydro-11H-dipyrimido[1,2-a:5′,4′-d]pyrimidin-11-one]
5.00 to 6.00	< 1 µM	< 1 µM	COC1(c2ncc3c(=O)n4c(nn23)N[C@@H](c2ccc(Cl)cc2)CC4)CC1 [Example 239]
